Data from patent US20090093521A1, “2, 5-Bis-Diamine [1,4] Benzoquinone-Derivatives” (priority 2005, published 2009).

Key:
BuChE = BuChE (Homo sapiens, UniProt P06276); assay: biochemical; assay type: biochemical; conditions: Ellman method, saturating substrate, absorbance at 412 nm
AChE = AChE (Homo sapiens, UniProt P22303); assay type: biochemical; conditions: for IC50: Ellman method, saturating substrate (acetylthiocholine), absorbance at 412 nm; for Selectivity IC50 (BuChE)/IC50 (AchE): ratio of IC50 (BuChE) to IC50 (AChE), preference for AChE over BuChE
Chain of AChE (P22303 32-614): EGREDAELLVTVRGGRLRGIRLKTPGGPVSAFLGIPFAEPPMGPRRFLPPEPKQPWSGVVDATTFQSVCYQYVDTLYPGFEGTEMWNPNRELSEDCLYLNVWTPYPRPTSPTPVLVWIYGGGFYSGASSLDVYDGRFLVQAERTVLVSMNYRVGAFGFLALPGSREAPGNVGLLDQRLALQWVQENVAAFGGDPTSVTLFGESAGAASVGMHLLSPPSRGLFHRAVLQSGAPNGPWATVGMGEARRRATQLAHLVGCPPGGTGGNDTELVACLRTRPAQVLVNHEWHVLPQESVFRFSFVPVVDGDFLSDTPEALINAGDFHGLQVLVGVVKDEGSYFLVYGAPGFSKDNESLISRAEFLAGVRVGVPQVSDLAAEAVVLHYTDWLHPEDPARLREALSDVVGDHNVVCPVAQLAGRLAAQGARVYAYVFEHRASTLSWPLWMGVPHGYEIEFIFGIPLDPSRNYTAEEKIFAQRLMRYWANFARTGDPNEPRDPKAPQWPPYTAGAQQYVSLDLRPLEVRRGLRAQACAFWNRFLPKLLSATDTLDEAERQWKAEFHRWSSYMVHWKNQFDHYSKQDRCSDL

Chain of BuChE (P06276 29-602): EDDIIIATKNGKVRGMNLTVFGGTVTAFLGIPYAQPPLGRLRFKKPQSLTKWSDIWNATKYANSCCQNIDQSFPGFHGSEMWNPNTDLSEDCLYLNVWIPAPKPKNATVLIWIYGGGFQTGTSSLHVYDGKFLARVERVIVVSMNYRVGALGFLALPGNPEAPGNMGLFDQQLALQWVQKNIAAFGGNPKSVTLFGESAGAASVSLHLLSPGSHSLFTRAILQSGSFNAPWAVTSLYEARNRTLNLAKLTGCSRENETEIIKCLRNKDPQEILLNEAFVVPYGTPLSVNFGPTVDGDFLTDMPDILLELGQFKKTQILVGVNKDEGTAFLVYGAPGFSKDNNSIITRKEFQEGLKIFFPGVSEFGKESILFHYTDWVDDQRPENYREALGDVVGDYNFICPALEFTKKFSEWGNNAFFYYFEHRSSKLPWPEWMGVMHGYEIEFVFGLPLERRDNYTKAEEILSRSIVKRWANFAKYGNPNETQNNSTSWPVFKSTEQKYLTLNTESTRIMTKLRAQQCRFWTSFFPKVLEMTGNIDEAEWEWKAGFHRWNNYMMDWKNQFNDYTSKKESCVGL

CCN(CCCCCCNC1=C(Br)C(=O)C(NCCCCCCN(CC)Cc2ccccc2OC)=C(Br)C1=O)Cc1ccccc1OC [Compound 36, 2,5-bis-{6-[ethyl-(2-methoxy-benzyl)-amine]-hexylamine}-3,6-dibromine-[1,4]benzoquinone]
IC50 (BuChE): 800 ± 62 nM | IC50 (AChE): 2.66 ± 0.19 nM | Selectivity IC50 (BuChE)/IC50 (AchE) (AChE): 300

CCN(CCCCCCNC1=C(F)C(=O)C(NCCCCCCN(CC)Cc2ccccc2OC)=C(F)C1=O)Cc1ccccc1OC [Compound 35, 2,5-bis-{6-[ethyl-(2-methoxy-benzyl)-amine]-hexylamine}-3,6-difluorine-[1,4]benzoquinone]
IC50 (BuChE): 1520 ± 90 nM | IC50 (AChE): 5.17 ± 0.17 nM | Selectivity IC50 (BuChE)/IC50 (AchE) (AChE): 294
